# How the values were obtained:
# Oprm1^−/− mice [1] = test: Direct social interaction test; type: in vivo, mouse; settings: for social interaction in wild-type controls: Oprm1+/+ mice
# Procedure: (§1) Mice were treated with vehicle (NaCl 0.9%; ip, 10 or 20 ml/kg), NaBr (Sigma-Aldrich, Saint-Quentin Fallavier, France) administered either chronically (once a day, 10, 30, 70, 125, 250 and 500 mg/kg; i.p. or per os, in a volume of 20 ml/kg—except for combination with VU0155041: […]) or acutely (250 mg/kg, 20 ml/kg), KBr (Sigma-Aldrich, Saint-Quentin Fallavier, France; 145 mg/kg; i.p., 20 ml/kg), bumetanide (R&D systems, Minneapolis, USA, 0.5 and 2 mg/kg; i.p., 20 ml/kg) or VU0155041 (Cayman Chemicals, Ann Arbor, USA, once a day, i.p., 1 mg/kg, 10 ml/kg). […] When treatment was given chronically, behavioral testing started 8 days after beginning of daily administration. Treatment was maintained for 8 to 18 consecutive days (see timelines in FIGS. 1 and 4), allowing thorough behavioral phenotyping. On testing days, or when treatment was given acutely, drugs (or vehicle) were administered 30 min before behavioral assays.
# When assessing effects of chronic administration, experiments were performed successively (timelines in FIGS. 1 and 4) (51, 60). Testing order was chosen to minimize the incidence of anxiety on later assays. Direct social interaction and novelty suppressed feeding were performed in 4 equal square arenas (open fields, 50×50 cm) separated by 35 cm-high opaque grey Plexiglas walls over a white Plexiglas platform (View Point, Lyon, France). Stimulus mice used for the three-chamber test were 8-14-week-old grouped-housed male or female wild-type mice, socially naive to the experimental animals.
# Direct social interaction test. On testing day, a pair of unfamiliar mice (not cage mates, age-, sex- and treatment-matched) was introduced in each arena for 10 min (15 lx). Each arena received a black plastic floor (transparent to infrared). […] The mean duration of nose and paw contacts was calculated from previous data (61-63).
# Oprm1^−/− mice [2] = test: Three-chamber social preference test; type: in vivo, mouse
# Procedure: as §1
# Three-chamber social preference test. The test apparatus consisted of a transparent acrylic box (exterior walls blinded with black plastic film); partitions divided the box into three equal chambers (40×20×22.5 cm). Two sliding doors (8×5 cm) allowed transitions between chambers. Cylindrical wire cages (18×9 cm, 0.5 cm diameter-rods spaced 1 cm apart) were used to contain the mouse interactor and object (soft-toy mouse). The test was performed in low-light conditions (15 lx) to minor anxiety. Stimulus wild-type mice were habituated to confinement in wire cages for 2 days before the test (20 min/day). On testing day, the experimental animal was introduced to the middle chamber and allowed to explore the whole apparatus for a 10-min habituation phase (wire cages empty) after the sliding doors were raised. The experimental mouse was then confined back in the middle-chamber while the experimenter introduced an unfamiliar wild type age and sex-matched animal into a wire cage in one of the side-chambers and a soft toy mouse (8×10 cm) in the second wire cage as a control for novelty. Then the experimental mouse was allowed to explore the apparatus for a 10-min interaction phase. The time spent in each chamber, the time spent in nose contact with each wire cage (empty: habituation; containing a mouse or a toy: interaction), as well as the number of these nose contacts were scored a posteriori on video recordings using an ethological keyboard (Labwatcher®, View Point, Lyon, France) by trained experimenters. […] The relative position of stimulus mice (versus toy) was counterbalanced between groups.
# Oprm1^−/− mice [3] = test: Motor stereotypies; type: in vivo, mouse
# Procedure: as §1
# Motor stereotypies. To detect motor stereotypies in mutant versus wild-type animals, mice were individually placed in clear standard home cages (21×11×17 cm) filled with 3-cm deep fresh sawdust for 10 min (64). Light intensity was set at 30 lux. Trained experimenters scored numbers of head shakes, as well as rearing, burying, grooming, circling episodes and total time spent burying by direct observation.
# Oprm1^−/− mice [4] = test: Marble-burying; type: in vivo, mouse; settings: Oprm1−/− mice; chronic NaBr 10-500 mg/kg or bumetanide 0.5 and 2 mg/kg
# Procedure: as §1
# Marble-burying. Marble burying was used as a measure of perseverative behavior (68). Mice were introduced individually in transparent cages (21×11×17 cm) containing 20 glass marbles (diameter: 1.5 cm) evenly spaced on 4-cm deep fresh sawdust. To prevent escapes, each cage was covered with a filtering lid. Light intensity in the room was set at 40 lux. The animals were removed from the cages after 15 min, and the number of marbles buried more than half in sawdust was quoted.
# Oprm1^−/− mice [5] = test: Y-maze exploration; type: in vivo, mouse
# Procedure: as §1
# Y-maze exploration. Spontaneous alternation behavior was used to assess perseverative behavior (65-67). Each Y-maze consisted of three connected Plexiglas arms (15×15×17 cm) covered with distinct wall patterns (15 lx). Floors were covered with lightly sprayed fresh sawdust to limit anxiety. Each mouse was placed at the center of a maze and allowed to freely explore this environment for 5 min. The pattern of entries into each arm was quoted on video-recordings. Spontaneous alternations (SPA), i.e. successive entries into each arm forming overlapping triplet sets, alternate arm returns (AAR) and same arm returns (SAR) were scored, and the percentage of SPA, AAR and SAR was calculated as following: total/(total arm entries−2)*100.
# Oprm1^−/− mice [6] = test: Novelty-suppressed feeding; type: in vivo, mouse; settings: chronic NaBr (since the lowest dose tested) or bumetanide
# Procedure: as §1
# Novelty-suppressed feeding. Novelty-suppressed feeding (NSF) was measured in 24-hr food-deprived mice, isolated in a standard housing cage for 30 min before individual testing. Three pellets of ordinary lab chow were placed on a white tissue in the center of each arena, lit at 60 lx. Each mouse was placed in a corner of an arena and allowed to explore for a maximum of 15 min. Latency to feed was measured as the time necessary to bite a food pellet. Immediately after an eating event, the mouse was transferred back to home cage (free from cage-mates) and allowed to feed on lab chow for 5 min. Food consumption in the home cage was measured.
# rodent models of ASD = settings: preclinical studies; cited from earlier work
# patients = settings: cited from earlier work
# Oprm1^−/− mice [7] = test: Behavioral tests of social, repetitive and anxious behavior (oral NaBr, KBr; data not shown); settings: mouse, in vivo
# Procedure: as §1
# (§2) Also, we assessed the behavioral effects of chronic administration of another bromide salt, KBr.
# [8] = dose of KBr equivalent to 250 mg/kg NaBr; pilot experiments
# From the text: as §2
# Oprm1^−/− mice [9] = test: Tail-immersion test; type: in vivo, mouse; settings: 50° C., NaBr 70 mg/kg, VU0155041 1 mg/kg, alone or combined, chronic
# Procedure: as §1
# Tail-immersion test. Nociceptive thresholds were assessed by immersing the tail of the mice (5 cm from the tip) successively into water baths at 48° C., 50° C. and 52° C. The latency to withdraw the tail was measured at each temperature, with a cutoff of 10 s.
# [10] = Oprm1−/− mice, chronic once daily, NaBr 10-500 mg/kg (effect from 125 mg/kg) or bumetanide 0.5 and 2 mg/kg, D9
# [11] = Oprm1−/− mice, one week after cessation of chronic treatment (NaBr over 70 mg/kg, highest doses; bumetanide depending on the dose)
# [12] = chronic NaBr 10-500 mg/kg or bumetanide 0.5 and 2 mg/kg
# [13] = chronic NaBr (since lowest dose, 10 mg/kg) or bumetanide 0.5 and 2 mg/kg
# [14] = Oprm1−/− mice, chronic NaBr 10-500 mg/kg or bumetanide 0.5 and 2 mg/kg
# [15] = Oprm1−/− mice, NaBr 70 mg/kg, VU0155041 1 mg/kg, alone or combined, once daily, chronic
structure (smiles),measurement,setting,value
CCCCNc1cc(C(=O)O)cc(S(N)(=O)=O)c1Oc1ccccc1 [bumetanide],social interaction in wild-type controls,"Oprm1^−/− mice [1]; chronic once daily, NaBr 10-500 mg/kg or bumetanide 0.5 and 2 mg/kg",showed deleterious effects on social interaction parameters in WT controls
same,social interaction in wild-type controls,"Oprm1^−/− mice [1]; chronic once daily, NaBr 10-500 mg/kg or bumetanide 0.5 and 2 mg/kg, listed as Bumetanide","at the highest dose, it impaired social interaction in wild-type controls"
same,social interaction deficit,"Oprm1^−/− mice [1]; Oprm1−/− mice, chronic once daily i.p., NaBr 10-500 mg/kg or bumetanide 0.5 and 2 mg/kg, D9",had only partial effects
same,number of nose contacts,"Oprm1^−/− mice [1]; Oprm1−/− mice, chronic once daily, NaBr 10-500 mg/kg (effect from 125 mg/kg) or bumetanide 0.5 and 2 mg/kg (effect at low dose), D9",increased the number of nose contacts
same,mean duration of nose contacts,Oprm1^−/− mice [1]; [10],failed to increase significantly the duration of nose contacts
same,mean duration of paw contacts,Oprm1^−/− mice [1]; [10],failed to increase significantly
same,number of paw contacts,Oprm1^−/− mice [1]; [10],failed to increase significantly
same,grooming after social contact,"Oprm1^−/− mice [1]; Oprm1−/− mice, chronic once daily, NaBr 10-500 mg/kg or bumetanide 0.5 and 2 mg/kg, D9","suppressed grooming episodes, notably those occurring after social contact, since the lowest dose tested"
same,duration of nose contacts,Oprm1^−/− mice [1]; [11],beneficial effects of bumetanide were still detectable
same,grooming after social contact,Oprm1^−/− mice [1]; [11],still detectable
same,number of following episodes,"Oprm1^−/− mice [1]; chronic once daily, NaBr 10-500 mg/kg (both mouse lines) or bumetanide (at low dose), D9",increased
same,social preference ratio,Oprm1^−/− mice [2]; [12],significant but partial recovery of social preference ratio
same,duration of nose contacts with the mouse versus the toy,Oprm1^−/− mice [2]; [13],"dose-dependently increased the duration of nose contacts with the mouse, but failed to reduce the duration of nose contacts with the toy"
same,number of nose contacts with the mouse versus the toy,Oprm1^−/− mice [2]; [13],at the lowest dose restored a preference for making more frequent nose contacts with the mouse over the toy
same,number of head shakes,Oprm1^−/− mice [3]; [14],suppressed circling and head shakes in mutant mice
same,stereotypic circling episodes,Oprm1^−/− mice [3]; [14],suppressed circling and head shakes in mutant mice
same,number of rearing episodes,"Oprm1^−/− mice [3]; both mouse lines (Oprm1−/− and Oprm1+/+), chronic NaBr or bumetanide",reduced the number of rearing episodes in both mouse lines
same,excessive marble burying,Oprm1^−/− mice [4],failed to suppress excessive marble burying in Oprm1^−/− mice
same,perseverative same arm returns,Oprm1^−/− mice [5]; [12],globally failed to suppress those
same,latency to eat,Oprm1^−/− mice [6]; Oprm1−/− mice,had no detectable effect on either latency to eat
same,food intake,Oprm1^−/− mice [6]; both mouse lines,had no detectable effect
same,autistic-like behaviors / phenotype in animal models,rodent models of ASD,improve autistic-like phenotype in rodent models of ASD
same,autistic behavior in small cohorts of patients,patients,relieve autistic behavior in small cohorts of patients
same,clinical benefit in a larger clinical trial,patients,"failed to be confirmed in a larger clinical trial, except for a reduction of repetitive behavior"
"[Br-].[K+] [KBr, potassium bromide]","social, repetitive and anxious behavior, compared with NaBr treatment",Oprm1^−/− mice [7],"fully replicated, if not exceeded, by KBr"
same,toxicity,[8],toxic
NC[C@H](CC(=O)O)c1ccc(Cl)cc1 [arbaclofen],autistic-like behaviors / phenotype in animal models,rodent models of ASD,improve autistic-like behaviors in animal models
O=C(Nc1cc(Cl)cc(Cl)c1)C1CCCC[C@H]1C(=O)O (stereo partly shown) [VU0155041],duration of nose contacts,Oprm1^−/− mice [1]; [15],partially rescued the duration of their nose contacts
same,grooming episodes after social contact,Oprm1^−/− mice [1]; [15],suppressed grooming episodes after a social contact
same,"effect in the social interaction test, pilot experiment",Oprm1^−/− mice [1]; liminal dose of VU0155041 (1 mg/kg i.p.),no detectable effect in the social interaction test
same,frequency of nose contacts with the mouse versus the toy,"Oprm1^−/− mice [2]; NaBr 70 mg/kg or VU0155041 1 mg/kg, once daily, chronic",sufficient to restore more frequent nose contacts with the mouse versus the toy
same,duration of nose contacts with the mouse versus the toy,"Oprm1^−/− mice [2]; NaBr 70 mg/kg, VU0155041 1 mg/kg, alone or combined, once daily, chronic",increased the duration of nose contacts with the mouse to that of the toy
same,perseverative same arm returns,Oprm1^−/− mice [5]; chronic VU0155041 1 mg/kg,sufficient to suppress perseverative same arm returns
same,flicking latency (nociceptive threshold),Oprm1^−/− mice [9],ineffective

# Reference: patent US20240366539A1, “METHODS FOR TREATING AUTISM SPECTRUM DISORDERS” (INSTITUT NATIONAL DE LA SANTÉ ET DE LA RECHERCHE MÉDICALE, priority 2021, published 2024)
